Assay results reported in patent US7056908B2, “Pharmaceutical compositions and methods for preventing skin tumor formation and causing regression of existing tumors” (priority 1991, dated 2006).

Key:
[1] = tested on: primary keratinocytes; test: Morphological changes and detachment of primary keratinocytes; format: cell-based, mouse; conditions: for alteration of cell morphology first detectable after: 10 nM staurosporine or 160 nM TPA, 0.05 mM Ca2+ medium
[2] = tested on: primary keratinocytes; test: Cornified envelope formation in primary keratinocytes; format: cell-based, mouse; conditions: 10 nM staurosporine or 160 nM TPA for 24 hours; 7 day old cultures
Description: Floating and attached cell populations were harvested and cornified envelopes isolated. Data are mean values for three separate dishes±standard error of the mean from one experiment.
7 day old primary keratinocytes were cultured with or without 60 nM bryostatin for 15 hours. […] Each data bar is the average value from duplicate dishes with the range indicated by error bars.

[3] = tested on: 308 cells; test: Morphological differentiation of 308 neoplastic keratinocyte cell line; format: cell-based, mouse; conditions: for morphological changes: 24 hours, 10 nM staurosporine or 160 nM TPA
[4] = tested on: SP-1 cells; test: Cornified envelope formation in SP-1 cells; format: cell-based, mouse; conditions: 1.4 mM Ca2+ medium, 3 days
Description: Cornified Envelope Quantitation. Keratinocytes were analyzed for cornified envelope formation as described (Nagae, S. et al, “Effect of retinoic acid on cornified envelope formation: difference between spontaneous envelope formation in vivo or in vitro and expression of envelope competence,” J. Invest., Dermatol., 89: 51–58, 1987), with minor modifications. Floating cells were harvested by collecting culture medium from each 60 mm dish and combining with two washes using phosphate-buffered saline without Ca^2+ and Ms^+2 (PBS). Cells were pelleted for 5 minutes at 1000 rpm in a benchtop clinical centrifuge and resuspended in 100 μl of lysis buffer (2% sodium dodecyl sulfate (SDS) and 20 mM dithiothreitol in PBS). Attached cells were harvested in 250 μl lysis buffer, combined with the preparation of floating cells, and incubated at 95° for 10 minutes. The non-solubilized, intact cornified envelopes, characteristic of terminally differentiated keratinocytes, were counted using a hemocytometer (Nagae, S. et al, “Effect of retinoic acid on cornified envelope formation: difference between spontaneous envelope formation in vivo or in vitro and expression of envelope competence,” J. Invest. Dermatol., 89: 51–58, 1987).
Cornified envelope formation was also determined in cultures of staurosporine-treated neoplastic cells. […]

[5] = tested on: primary keratinocytes; test: Epidermal transglutaminase activity in primary keratinocytes; format: cell-based, mouse; conditions: 9 hours, 1.4 mM Ca2+ medium; for increase in epidermal transglutaminase activity: 8 day old cultures
Description: (§1) Enzyme Assays. Activity of epidermal transglutaminase was determined by measuring cross-linking of ^3H-putrescine to dimethylcasein (20). Cell lysates were incubated at […] for 10 minutes to inactivate tissue transglutaminase. Ornithine decarboxylase activity of cell lysates was determined by quantifying release of ^14CO2 from ^14C-ornithine (Sako, T. et al, “Partial parallelism and partial blockade by bryostatin 1 of effects of phorbol ester tumor promoters on primary mouse epidermal cells,” Cancer Res., 47: 5445–5450, 1987).
Epidermal transglutaminase activity is elevated in terminally differentiating keratinocytes both in vivo and in vitro. […] Control cultures (0 nM dose) were treated with 0.1% DMSO. Each point is the average of duplicate dishes with the range indicated by error bars.

[6] = tested on: primary keratinocytes; format: cell-based, mouse
Description: EGF binding was assessed in 6-well tissue culture dishes plated at a cell density of 2.5×10^6 cells/well (Strickland, J. E. et al, “Interaction of epidermal growth factor with basal and differentiating epidermal cells of mice resistant and sensitive to carcinogenesis,” Carcinogenesis, 5: 735–740, 1984). […] A second set of cultures received, in addition, 1 μg/ml unlabelled EGF to assess non-specific binding of radioactive ligand. Following the incubation period, cultures were washed 4 times with ice-cold binding buffer, harvested in 1.5 ml lysis buffer (0.1 M tris (pH 7.4), 0.5% SDS, 1 mM EDTA), and radioactivity determined by scintillation counting.
Exposure of a variety of cultured cell types to TPA results in inhibition of EGF binding which is attributed to PKC-mediated phosphorylation of the EGF receptor (Diamond, L., “Tumor promoters and cell transformation,” In: D. Grunberger and S. P. Goff. (eds.), Mechanisms of Cellular Transformation by Carcinogenic Agents, pp. 73–133, New York: Pergamon Press. 1987).
Each point is the mean of trilpicate dishes±standard error of the mean.

[7] = tested on: grafted SP-1 mouse papilloma cells; test: Tumor formation from grafted SP-1 papilloma cells on nude mice, topical treatment; format: in vivo; conditions: 6.25 nmoles/treatment
Description: For grafting, BALB/c-derived nude mice, approximately two months-old, were used as hosts. Animals were anesthetized with Nembutal and sterile surgical technique was used. 0.5×10^6 SP-1 or 308 cells were grafted along with 6–8×10^6 primary SENCAR mouse dermal fibroblasts. […] Cells were removed from culture dishes by treatment with 0.25% trypsin-0.01% EDTA for approximately 10 min. at 36° and washed with medium. Suspensions of papilloma cells and primary dermal fibroblasts were centrifuged 5 min. at 1000 rpm, the medium aspirated, and the cell pellet applied to the graft bed using a sterile plastic transfer pipet. Graft tumors were measured weekly, using calipers, starting three weeks after grafting and for at least 5 additional weeks thereafter. As an approximate tumor volume, the height was multiplied by the smallest and largest lateral measurements. Data are expressed as means i standard error of the mean of approximate tumor volume in mm^3.
Five mice in each group were grafted Feb. 28, 1990 with 0.5×10^6 SP-1 cells+6×10^6 primary SENCAR mouse dermal fibroblasts.
Tumor measurements were begun three weeks after grafting and continued for eight weeks.
Ten mice in each group were grafted Mar. 22, 1990 with 0.5×10^6 SP-1 cells+6×10^6 primary SENCAR mouse dermal fibroblasts.
Ten mice in each group were grafted May 17, 1990 with 0.5×10^6 SP-1 cells+6×10^6 primary SENCAR mouse dermal fibroblasts. […]

[8] = tested on: primary keratinocytes; test: Cell toxicity by trypan blue exclusion; format: cell-based, mouse
Description: Miscellaneous Assays. Cell toxicity was determined using trypan blue exclusion as a marker for viable cells. Cells growing in 60 mm culture dishes were washed once with PBS, incubated at room temperature with 1 ml 0.4% trypan blue in normal saline (GIBCO, Rockville, Md.), washed twice with PBS, then placed on ice until cells were counted. Protein in cell lysates was determined using a commercial colorimetric assay (Bio-Rad Laboratories, Richmond, Calif.).
Phase-contrast photomicrographs were taken at the indicated times after beginning treatment. Similar results were obtained in three additional experiments. Magnification was ×90.

[9] = tested on: human bladder carcinoma cells; conditions: systemic administration at 1/10 or 1/20 the maximum tolerated dose; cited from earlier work
[10] = tested on: primary keratinocytes; test: Ornithine decarboxylase activity in primary keratinocytes; format: cell-based, mouse; conditions: 5 hours exposure
Description: as §1
Each point is the mean for four dishes±standard error of the mean from one experiment. Similar results were obtained in an additional experiment. As with staurosporine-mediated induction of transglutaminase, this response is restricted to a narrow dose range between 5 and 10 nM.

[11] = morphological response to staurosporine

Row | Structure (SMILES) | alteration of cell morphology first detectable after [1] [minutes] | cells rounded-up and detached from the substrate ([1]; 160 nM TPA, after 24 hours) | increase in cornified envelopes relative to control cultures [2] [fold] | morphological changes [3] | inducing morphological differentiation ([3]; doses ranging from 1.6 nM to 16 uM) | cornified envelope formation ([4]; 160 nM TPA) | increase in epidermal transglutaminase activity ([5]; 100 and 1000 nM) [fold] | reduction of 125I-EGF binding relative to controls [6] [%] | cells detached from the substrate ([1]; 10 nM staurosporine, 24 hours) | treatment time required for a maximal response [1, 11] [h] | effect of higher doses on papilloma growth [7] | cells trypan blue positive ([8]; 7.5 hour exposure to 1 μM staurosporine) [%] | cells that took up trypan blue ([8]; ≦10 nM staurosporine) [%] | treatment time required for a maximal response [3, 11] | induction of cornified envelopes ([4]; 10 nM staurosporine) [fold] | increase in epidermal transglutaminase activity ([5]; 10 nM) [fold] | dose to which induction of transglutaminase activity is restricted [5] [nM] | retardation of tumor growth [9] | ornithine decarboxylase activity [10]
1 | CCCCCCCCCCCCCC(=O)O[C@@H]1[C@@H](C)[C@@]2(O)[C@@H](C=C(CO)C[C@]3(O)C(=O)C(C)=C[C@@H]23)[C@H]2C(C)(C)[C@]12OC(C)=O [TPA, 12-0-tetradecanoylphorbol-13-acetate, reference compound] | 20 | about 50% | 4 | does not appreciably alter the appearance | ineffective | not induced | 5 | 94 | – | – | – | – | – | – | – | – | – | – | –
2 | CN[C@@H]1C[C@H]2O[C@@](C)([C@@H]1OC)n1c3ccccc3c3c4c(c5c6ccccc6n2c5c31)C(=O)NC4 [staurosporine] | 20 | – | – | morphological changes similar to those seen in primary cells | – | – | – | – | nearly all cells | 24 | appear to stimulate papilloma growth | 74 | < 5 | at least 48 hours | 10 | 4 | 10 | approximately 60% | induction of ornithine decarboxylase activity
